From ChEMBL document CHEMBL1157539, “Thousands of chemical starting points for antimalarial lead identification” (Nature, 2010)

These compounds were tested on Plasmodium falciparum (assay: GSK_TCMDC: Inhibition of Plasmodium falciparum 3D7 in whole erythrocytes, using parasite LDH activity as an index of growth.). Conditions: Plasmodium falciparum, 3D7.
Assay type: functional, organism-based

SMILES	XC50
O=C(NC1CCN(c2ccc(F)cc2[N+](=O)[O-])CC1)c1cccs1	675 nM
CCc1ccc(NC(=O)c2ccc(CN3CCCN(CC4CCCCC4)CC3)cc2)cc1	711 nM
COCCNCc1cccc(-c2ccc3nccc(Nc4cc(O)ccc4C)c3c2)c1	749 nM
CN(C)Cc1c(O)ccc2[nH]c(-c3ccc(OC(F)(F)F)cc3)nc12	727 nM
c1cc(CN2CCC(CCN3CCCCC3)CC2)cc(-c2cccc(-c3nc4ccccc4[nH]3)c2)c1	140 nM
O=C(NC1CCN(CCCc2ccccc2)CC1)c1ccc(-c2cccc(C(F)(F)F)c2)s1	894 nM
Brc1ccc(C=NNc2nc3ccccc3[nH]2)cc1	700 nM
c1cc(C2=NC3CCCCC3N2)ccc1OCCCCCOc1ccc(C2=NC3CCCCC3N2)cc1 (stereo not drawn)	228 nM
O=c1cc(NCCCNCc2sc(Br)c(Br)c2Br)[nH]c2ccccc12	1010 nM
COc1ccc(C(C(=O)NC2CCN(C[C@H](O)c3ccnc4ccc(OC)cc34)CC2)N2CCN(c3ccc([N+](=O)[O-])cc3)CC2)cc1 (stereo partly drawn)	232 nM
COc1ccc(Br)cc1/C=C/C(=O)Nc1ccc(C2CCCN(C)C2)cc1 (stereo not drawn)	633 nM
COc1ccc(NC(=O)Nc2ccc(-c3ccncc3)c(C(F)(F)F)c2)cc1N1CCN(C)CC1	763 nM
Cc1ccccc1C1CCN(C2CCC(NC(=O)/C=C/c3c(F)ccc(F)c3F)CC2)CC1 (stereo not drawn)	1260 nM
O=C(Cc1ccc(NC(=O)c2ccc(O)c(-c3ccc(Cl)c(Cl)c3)c2)cc1)NCCc1ccc(Cl)c(Cl)c1	717 nM
Cc1cc(C(=O)Nc2ccc3c(c2)CCN3C2CCN(Cc3cccc(F)c3F)C2)no1 (stereo not drawn)	583 nM
Cc1cnc(Nc2ccccc2)nc1NCCC(=O)Nc1ccccc1	1160 nM
CCC(C)OC(=O)C1=C(C)NC2=C(C(=O)CC(c3ccc(OC)c(OC)c3)C2)C1c1ccc(O)cc1 (stereo not drawn)	218 nM
COc1cc(NC(=O)CCCCCCCCN2CCN(C)CC2)c2ncccc2c1	891 nM
CN(Cc1ccc(-c2ccc(C(F)(F)F)cc2)cc1)C(=O)Cn1c(CCc2cccc(F)c2F)cc(=O)c2ccc(OCC3CCCN3C)cc21 (stereo not drawn)	1070 nM
O=S(=O)(c1ccccc1OC(F)(F)F)C1CC2CCC(C1)N2S(=O)(=O)c1cccc(C(F)(F)F)c1 (stereo not drawn)	665 nM
Cc1nc2ccc(S(=O)(=O)Nc3ccc(C(=O)N[C@@H](CCC(=O)O)C(=O)O)cc3)cc2c(=O)[nH]1	1010 nM
Cc1nc(N)nc(N)c1OCc1ccc(Cl)c(Cl)c1	131 nM
CCCCN(CCCC)CCOc1cc2c(cc1OC)CCN2C(=O)/C=C/c1ccccc1Cl	1180 nM
CC(C)CNCc1cccc(-c2cccc(CN(CCCN3CCN(C)CC3)C(=O)Nc3ccccc3)c2)c1	1150 nM
CCOc1ccc(-c2nonc2NC(=O)CC(C)C)cc1OCC	977 nM
Fc1ccc(-c2csc3ncnc(Cl)c23)cc1	331 nM
O=C(Nc1ccc(-c2ccccc2)cc1)Nc1cccc(Cn2nc(Cl)c(N3CCNCC3)cc2=O)c1	369 nM

SMILES	XC50
O=c1cc(NCCCNCc2ccc(Cl)c(Cl)c2)[nH]c2cc(Cl)ccc12	925 nM
CCCCOc1c(CCC)cc(Cc2cnc(N)nc2N)cc1CCC	629 nM
COc1cccc(C=Cc2nc(=O)c3ccccc3o2)c1OC	64.4 nM
COc1ccc(NC(=O)c2ccc3[nH]c(-c4ccc(Cl)cc4)cc3c2)cc1OCCN(C)C	813 nM
CN(C(=O)c1ccccc1)C1c2cc(C#N)ccc2OC(C)(C)C1O (stereo not drawn)	654 nM
Cc1cccc2[nH]c(-c3cc(-c4cccc(Cl)c4)cnc3N)nc12	124 nM
CCCn1cnc2cc(C(=O)Nc3ccc(-c4cccc(CN(C)C)c4)cc3)ccc2c1=O	928 nM
c1ccc2c(CNc3nc(NCC4CCCCC4)nc4[nH]cnc34)cccc2c1	888 nM
CN1CCN(c2ccc3[nH]c(-c4ccc5[nH]c(-c6ccc([N+](=O)[O-])c(N)c6)nc5c4)nc3c2)CC1	105 nM
CN(C)c1ccc(-c2ccc(C(=O)NC3CCN(Cc4ccccc4)CC3)s2)cc1	1050 nM
O=C(Nc1ccc(OC2CCN(Cc3ccccc3)C2)c(Cl)c1)c1ccsc1 (stereo not drawn)	735 nM
Cc1cc(C(=O)Nc2ccc(OCc3ccccc3)cc2)on1	991 nM
CO/C(=C\C=C\c1cc2cc(Cl)c(Cl)cc2[nH]1)C(=O)NCCCN(C)CCN(C)c1ccccc1	828 nM
COc1ccccc1C1CCN(C2CCC(NC(=O)/C=C/c3ccc(F)c(F)c3)CC2)CC1 (stereo not drawn)	1320 nM
CCOC(=O)c1cn(CC)c2cc(N(C)CCc3ccc(OC)c(OC)c3)c(F)cc2c1=O	425 nM
COCCCN=C(S)NN=C(C)c1ccccn1	296 nM
N=C(N)NN=Cc1ccc2c(ccc3ccccc32)c1	634 nM
Cc1[nH]c(C)c(-c2ccc(-c3ccc(OCC(F)(F)F)cc3)nc2)c(=O)c1Cl	389 nM
CCC[C@@H]([C@@H](CC1CCCCC1)C(=O)N[C@H](C(=O)Nc1nccs1)C(C)(C)SCCOCCOCC)N(O)C=O	82.2 nM
CC(NC(=O)c1ccc(O)c(-c2ccc(Cl)c(Cl)c2)c1)C(=O)NCCN1CCCCC1 (stereo not drawn)	868 nM
COc1ccccc1CCNc1nc(C)cc(N[C@@H](Cc2ccccc2)C(=O)Nc2ccccc2)n1	1020 nM
Cc1cccc(-c2ccc(CNC3CCN(CC4Cn5c(=O)ccc6ccc(F)c4c65)CC3)cn2)c1 (stereo not drawn)	1530 nM
CN1CCC=C(C(=O)NCC(C)(C)c2nc(-c3ccc(Cl)c(O)c3)c(-c3ccncc3)[nH]2)C1	1000 nM
COc1cc(OC)cc(C(=O)Nc2ccc(Nc3nc(C)cc(N(C)C)n3)cc2)c1	646 nM
COc1ccc(NC(=O)[C@H](CC(C)C)Nc2cc(C)nc(NCCc3ccccc3)n2)cc1	888 nM
CC[C@H]1CN2CC[C@H]1C[C@H]2[C@H](O)c1cc(N2CCCC(CO)C2)nc2ccc(OC)cc12 (stereo partly drawn)	77.5 nM
